Test results from article PMC11930985 (Nature Communications, 2025).

System: AML/MDS patients
Experimental: Safety assessments including standard clinical laboratory safety tests (hematology, biochemistry, coagulation, and urinalysis), physical examinations, vital signs (blood pressure, heart rate, respiration rate and temperature), and ECOG performance status were performed at baseline and throughout the study. Electrocardiograms were obtained at screening, Cycle 1 Day 1–4, 8, and 15, Cycle 2 Day 1, 8 and 15, at Day 1 of each cycle thereafter, (up to and including Cycle 15), and at Final Study Visit. QT prolongation was assessed using the Fridericia correction […] [34]. Severity of QTcF prolongation was defined as follows: Grade 1: maximum prolongation 450–480 ms; Grade 2: maximum prolongation 481-500 ms; Grade 3: ≥501 ms on at least two separate ECGs; Grade 4: ≥501 ms or >60 ms change from baseline, with Torsades de pointes, polymorphic ventricular tachycardia or signs/symptoms of serious arrythmia; Grade 5: Death.
Adverse events (AEs) were monitored starting at study enrolment until 28 days after end of treatment and graded according to the National Cancer Institute Common Terminology Criteria for Adverse Events (NCI-CTCAE) version 4.0. If drug-related toxicities continued beyond the follow-up period, patients were followed until all drug-related toxicities resolved to grade ≤1, stabilized or returned to baseline.

[1] = DE and LDAC cohorts combined (n = 72)

Nc1nc(Nc2ccc3c(c2)CC[C@@H](N2CCCC2)CC3)nn1-c1cc2c(nn1)-c1ccccc1CCC2 [Bemcentinib]
Fatal SAEs: cerebral hemorrhage [1]: 2 n
Fatal SAEs: pneumonia/fungal pneumonia [1]: 3 n
Fatal SAEs: sepsis/neutropenic sepsis [1]: 4 n
Fatal SAEs (DE cohort): 7
Actinomyces test positive, number of events (E) (human, in vivo): 1
Actinomyces test positive, patients affected (human, in vivo): 1 (2.8) n (%)
Anaemia, number of events (E) (human, in vivo): 4
Anaemia, patients affected (human, in vivo): 4 (11.1) n (%)
Anxiety, number of events (E) (human, in vivo): 2
Anxiety, patients affected (human, in vivo): 2 (5.6) n (%)
Back pain, number of events (E) (human, in vivo): 1
Back pain, patients affected (human, in vivo): 1 (2.8) n (%)
Blood and lymphatic system disorders (System Organ Class), number of events (E) (human, in vivo): 26
Blood and lymphatic system disorders (System Organ Class), patients affected (human, in vivo): 12 (33.3) n (%)
Cardiac disorders (System Organ Class), number of events (E) (human, in vivo): 10
Cardiac disorders (System Organ Class), patients affected (human, in vivo): 4 (11.1) n (%)
Decreased appetite, number of events (E) (human, in vivo): 2
Decreased appetite, patients affected (human, in vivo): 2 (5.6) n (%)
Dehydration, number of events (E) (human, in vivo): 1
Dehydration, patients affected (human, in vivo): 1 (2.8) n (%)
Device related infection, number of events (E) (human, in vivo): 1
Device related infection, patients affected (human, in vivo): 1 (2.8) n (%)
Diarrhoea, number of events (E) (human, in vivo): 6
Diarrhoea, patients affected (human, in vivo): 3 (8.3) n (%)
Dysgeusia, number of events (E) (human, in vivo): 1
Dysgeusia, patients affected (human, in vivo): 1 (2.8) n (%)
Dysphagia, number of events (E) (human, in vivo): 1
Dysphagia, patients affected (human, in vivo): 1 (2.8) n (%)
Dyspnoea exertional, number of events (E) (human, in vivo): 1
Dyspnoea exertional, patients affected (human, in vivo): 1 (2.8) n (%)
Dyspnoea, number of events (E) (human, in vivo): 1
Dyspnoea, patients affected (human, in vivo): 1 (2.8) n (%)
Enterococcal bacteraemia, number of events (E) (human, in vivo): 1
Enterococcal bacteraemia, patients affected (human, in vivo): 1 (2.8) n (%)
Enthesopathy, number of events (E) (human, in vivo): 1
Enthesopathy, patients affected (human, in vivo): 1 (2.8) n (%)
Epistaxis, number of events (E) (human, in vivo): 2
Epistaxis, patients affected (human, in vivo): 1 (2.8) n (%)
Fall, number of events (E) (human, in vivo): 1
Fall, patients affected (human, in vivo): 1 (2.8) n (%)
Fatigue, number of events (E) (human, in vivo): 4
Fatigue, patients affected (human, in vivo): 2 (5.6) n (%)
Gastrointestinal disorders (System Organ Class), number of events (E) (human, in vivo): 18
Gastrointestinal disorders (System Organ Class), patients affected (human, in vivo): 12 (33.3) n (%)
General disorders and administration site conditions (System Organ Class), number of events (E) (human, in vivo): 8
General disorders and administration site conditions (System Organ Class), patients affected (human, in vivo): 6 (16.7) n (%)
General physical health deterioration, number of events (E) (human, in vivo): 3
General physical health deterioration, patients affected (human, in vivo): 3 (8.3) n (%)
Gingivitis, number of events (E) (human, in vivo): 1
Gingivitis, patients affected (human, in vivo): 1 (2.8) n (%)
Haematuria, number of events (E) (human, in vivo): 1
Haematuria, patients affected (human, in vivo): 1 (2.8) n (%)
Hyperglycaemia, number of events (E) (human, in vivo): 4
Hyperglycaemia, patients affected (human, in vivo): 2 (5.6) n (%)
Hyperuricaemia, number of events (E) (human, in vivo): 2
Hyperuricaemia, patients affected (human, in vivo): 2 (5.6) n (%)
Hypoglycaemia, number of events (E) (human, in vivo): 1
Hypoglycaemia, patients affected (human, in vivo): 1 (2.8) n (%)
Hypokalaemia, number of events (E) (human, in vivo): 5
Hypokalaemia, patients affected (human, in vivo): 5 (13.9) n (%)
Hyponatraemia, number of events (E) (human, in vivo): 2
Hyponatraemia, patients affected (human, in vivo): 2 (5.6) n (%)
Hypophosphataemia, number of events (E) (human, in vivo): 3
Hypophosphataemia, patients affected (human, in vivo): 3 (8.3) n (%)
Hypotension, number of events (E) (human, in vivo): 3
Hypotension, patients affected (human, in vivo): 3 (8.3) n (%)
Hypoxia, number of events (E) (human, in vivo): 2
Hypoxia, patients affected (human, in vivo): 2 (5.6) n (%)
Infection, number of events (E) (human, in vivo): 2
Infection, patients affected (human, in vivo): 2 (5.6) n (%)
Infections and infestations (System Organ Class), number of events (E) (human, in vivo): 29
Infections and infestations (System Organ Class), patients affected (human, in vivo): 23 (63.9) n (%)
Injury, poisoning and procedural complications (System Organ Class), number of events (E) (human, in vivo): 1
Injury, poisoning and procedural complications (System Organ Class), patients affected (human, in vivo): 1 (2.8) n (%)
Investigations (System Organ Class), number of events (E) (human, in vivo): 8
Investigations (System Organ Class), patients affected (human, in vivo): 7 (19.4) n (%)
Lactic acidosis, number of events (E) (human, in vivo): 1
Lactic acidosis, patients affected (human, in vivo): 1 (2.8) n (%)
Leukocytosis, number of events (E) (human, in vivo): 1
